According to ChEMBL document CHEMBL3352482, “Discovery of potent N-(isoxazol-5-yl)amides as HSP90 inhibitors” (Eur J Med Chem, 2014):
Activity calls are given as the source filed them. No cut-off for these calls is given here.

Assays:
A549 = experiment: Growth inhibition of human A549 cells after 72 hrs by SRB assay; format: functional; details: A549, 72 h
[1] = biological target: T1, Heat shock protein HSP 90-alpha (Homo sapiens, UniProt P07900)
Description: Inhibition of HSP90alpha (unknown origin) after 16 hrs by FP enzymatic assay

[2] = Mean residence time in mouse at 50 mg/kg, po; format: ADME, organism-based; parameters: dose 50 mg/kg, route oral; details: in vivo
SK-MEL-28 = experiment: Growth inhibition of human SK-MEL-28 cells after 72 hrs by SRB assay; format: functional; details: SK-MEL-28, 72 h
[3] = Cmax in mouse at 50 mg/kg, po; format: ADME, organism-based; parameters: dose 50 mg/kg, route oral; details: in vivo
NCI-H596 = experiment: Growth inhibition of human NCI-H596 cells after 72 hrs by SRB assay; format: functional; details: NCI-H596, 72 h
DU-145 = experiment: Growth inhibition of human DU145 cells after 72 hrs by SRB assay; format: functional; details: DU-145, 72 h
SW480 = experiment: Growth inhibition of human SW480 cells after 72 hrs by SRB assay; format: functional; details: SW480, 72 h
[4] = Oral bioavailability in mouse at 50 mg/kg; format: ADME, organism-based; details: in vivo
SW-620 = experiment: Growth inhibition of human SW620 cells after 72 hrs by SRB assay; format: functional; details: SW-620, 72 h
[5] = Intrinsic clearance in human liver microsomes assessed per mg protein; format: ADME; details: read-out: CLH
[6] = Tmax in mouse at 50 mg/kg, po; format: ADME, organism-based; parameters: dose 50 mg/kg, route oral; details: in vivo
[7] = Growth inhibition of human 786-O cells after 72 hrs by SRB assay; format: functional; details: 786-0, 72 h
[8] = Growth inhibition of human OVCAR8 cells after 72 hrs by SRB assay; format: functional; details: OVCAR-8, 72 h
[9] = Intrinsic clearance in rat liver microsomes assessed per mg protein; format: ADME; details: read-out: CLH
HCC1937 = experiment: Growth inhibition of human HCC1937 cells after 72 hrs by SRB assay; format: functional; details: HCC1937, 72 h
[10] = Growth inhibition of human HCC827 cells after 72 hrs by SRB assay; format: functional; details: HCC827, 72 h
[11] = Half life in mouse at 10 mg/kg, iv; format: ADME, organism-based; parameters: dose 10 mg/kg, route intravenous; details: in vivo
MDA-MB-468 = experiment: Growth inhibition of human MDA-MB-468 cells after 72 hrs by SRB assay; format: functional; details: MDA-MB-468, 72 h
[12] = AUC (0 to t) in mouse at 50 mg/kg, po; format: ADME, organism-based; parameters: dose 50 mg/kg, route oral; details: plasma
[13] = AUC (0 to t) in mouse at 10 mg/kg, iv; format: ADME, organism-based; parameters: dose 10 mg/kg, route intravenous; details: plasma
[14] = Growth inhibition of human HCT116 cells after 72 hrs by SRB assay; format: functional; details: HCT-116, 72 h
[15] = Growth inhibition of human U87MG cells after 72 hrs by SRB assay; format: functional, U-87MG ATCC; details: U-87 MG
[16] = Growth inhibition of human SMMC7721 cells after 72 hrs by SRB assay; format: functional; details: SMMC-7721, 72 h
[17] = Half life in mouse at 50 mg/kg, po; format: ADME, organism-based; parameters: dose 50 mg/kg, route oral; details: in vivo
[18] = Mean residence time in mouse at 10 mg/kg, iv; format: ADME, organism-based; parameters: dose 10 mg/kg, route intravenous; details: in vivo
MDA-MB-231 = experiment: Growth inhibition of human MDA-MB-231 cells after 72 hrs by SRB assay; format: functional; details: MDA-MB-231, 72 h
HeLa = experiment: Growth inhibition of human HeLa cells after 72 hrs by SRB assay; format: functional
[19] = biological target: T1, Heat shock protein HSP 90-alpha; details: U-87MG ATCC
Description: Inhibition of HSP90alpha in human U87MG cells assessed as increase in HSP70 level at 50 to 200 nM after 24 hrs by western blotting

[20] = biological target: T1, Heat shock protein HSP 90-alpha; details: U-87MG ATCC; remark: listed apart in the source
Description: Inhibition of HSP90alpha in human U87MG cells assessed as increase in HSP27 level at 50 to 200 nM after 24 hrs by western blotting

[21] = biological target: T1, Heat shock protein HSP 90-alpha; details: U-87MG ATCC; remark: listed apart in the source
Description: Inhibition of HSP90alpha in human U87MG cells assessed as decrease in p-Erk level at 50 to 100 nM after 24 hrs by western blotting

[22] = biological target: T1, Heat shock protein HSP 90-alpha; details: U-87MG ATCC; remark: listed apart in the source
Description: Inhibition of HSP90alpha in human U87MG cells assessed as decrease in p-Akt level at 50 to 100 nM after 24 hrs by western blotting

[23] = biological target: T1, Heat shock protein HSP 90-alpha; details: U-87MG ATCC; remark: listed apart in the source
Description: Inhibition of HSP90alpha in human U87MG cells assessed as decrease in c-Met level at 50 to 100 nM after 24 hrs by western blotting

## CC(C)c1cc(-c2noc(NC(=O)C3CC3)c2-c2ccc(CN3CCC(N(C)C)CC3)cc2)c(O)cc1O
A549
  GI50: 2420 nM
[1]
  IC50: 70 nM

## CC(C)c1cc(-c2noc(NC(=O)C3CC3)c2-c2ccc(CN3CCSCC3)cc2)c(O)cc1O
A549
  GI50: 203 nM
[1]
  IC50: 57 nM

## COc1ccc(-c2c(-c3cc(Br)c(O)cc3O)noc2NC(C)=O)cc1
A549
  GI50: 3760 nM
[1]
  IC50: 44 nM

## CCNC(=O)Nc1onc(-c2cc(Cl)c(O)cc2O)c1-c1ccc(OC)cc1
A549
  GI50: 926 nM
[1]
  IC50: 59 nM

## COc1ccc(-c2c(-c3ccc(O)cc3O)noc2NC(C)=O)cc1
A549
  GI50: 13100 nM
[1]
  IC50: 140 nM

## COc1ccc(-c2c(-c3cc(Cl)c(O)cc3O)noc2NC(=O)C2CCC2)cc1
A549
  GI50: 5480 nM
[1]
  IC50: 88 nM

## COc1ccc(-c2c(-c3cc(Cl)c(O)cc3O)noc2N)cc1
A549
  GI50: 931 nM
[1]
  IC50: 53 nM

## CC(C)c1cc(-c2noc(NC(=O)C3CC3)c2-c2ccc(CN(C)CCc3ccccc3)cc2)c(O)cc1O
A549
  GI50: 162 nM
[1]
  IC50: 140 nM

## CCCCCCCC(=O)Nc1onc(-c2cc(Cl)c(O)cc2O)c1-c1ccc(OC)cc1
A549
  GI50: 761 nM
[1]
  IC50: 43 nM

## CC1CN(Cc2ccc(-c3c(-c4cc(C(C)C)c(O)cc4O)noc3NC(=O)C3CC3)cc2)CC(C)O1 (stereo not given)
A549
  GI50: 129 nM
[1]
  IC50: 29 nM

## CC(C)c1cc(-c2noc(NC(=O)C3CC3)c2-c2ccc(CN3CCC(N4CCCC4)CC3)cc2)c(O)cc1O
A549
  GI50: 970 nM
[1]
  IC50: 44 nM

## CC(C)c1cc(-c2noc(NC(=O)C3CC3)c2-c2ccc(CN(C)CCN(C)C)cc2)c(O)cc1O
A549
  GI50: 499 nM
[1]
  IC50: 55 nM

## CC(C)c1cc(-c2noc(NC(=O)C3CC3)c2-c2ccc(CN3CCC(N4CCOCC4)CC3)cc2)c(O)cc1O [listing 1 of 2 here]
[2]
  MRT: 2.71 h
SK-MEL-28
  GI50: 153 nM
[3]
  Cmax: 149 ng/mL
NCI-H596
  GI50: 219 nM
DU-145
  GI50: 45 nM
SW480
  GI50: 82 nM
[4]
  bioavailability: 9.2%
SW-620
  GI50: 56 nM
A549
  GI50: 94 nM
[5]
  microsomal CLint: 70 µL/min/mg
[6]
  Tmax: 0.25 h
[7]
  GI50: 69 nM
[8]
  GI50: 48 nM
[9]
  microsomal CLint: 10 µL/min/mg
HCC1937
  GI50: 87 nM
[10]
  GI50: 35 nM
[11]
  half-life: 6.46 h
[1]
  IC50: 30 nM
MDA-MB-468
  GI50: 115 nM
[12]
  AUC(0-t): 356 ng·h/mL
[13]
  AUC(0-t): 748 ng·h/mL
[14]
  GI50: 112 nM
[15]
  GI50: 115 nM
[16]
  GI50: 56 nM
[17]
  half-life: 1.98 h
[18]
  MRT: 4.52 h
MDA-MB-231
  GI50: 62 nM
HeLa
  GI50: 71 nM

## CC(C)c1cc(-c2noc(NC(=O)C3CC3)c2-c2ccc(CN(C)C3CCCCC3)cc2)c(O)cc1O
A549
  GI50: 139 nM
[1]
  IC50: 58 nM

## CC(C)c1cc(-c2noc(NC(=O)C3CC3)c2-c2ccc(CN3CCC(N4CCOCC4)CC3)cc2)c(O)cc1O [listing 2 of 2 here]
[19]
  inhibition: Active
[20]
  inhibition: Active
[21]
  inhibition: Active
[22]
  inhibition: Active
[23]
  inhibition: Active

## COc1ccc(-c2c(-c3cc(Cl)c(O)cc3O)noc2NC(C)=O)cc1
A549
  GI50: 7200 nM
[1]
  IC50: 70 nM

## CCc1cc(-c2noc(NC(C)=O)c2-c2ccc(OC)cc2)c(O)cc1O
A549
  GI50: 2100 nM
[1]
  IC50: 42 nM

## COc1ccc(-c2c(-c3cc(Cl)c(O)cc3O)noc2NC(=O)C2CCCC2)cc1
A549
  GI50: 18700 nM
[1]
  IC50: 44 nM
